Results published in US10335048B2, “High-resolution metabolic neuroimaging” (Oregon Health & Science University, priority 2013, dated 2019).

Tests used:
[1] = human, in vivo
Text: A 7 T [Tesla] whole-body MRI instrument (Siemens, Erlangen Germany), with quadrature transmission and 24-channel phased-array receive head RF coils, was used. Dynamic measurements employed a single-slice inversion recovery (IR) turboflash technique (Haase A. Snapshot FLASH MRI. Applications to T1, T2, and chemical-shift imaging. Magn. Reson. Med. 1990; 13: 77-89), sampling magnetization eight post-inversion times [TIs]: the inversion pulse was non-selective. […] Gadoteridol [ProHance; Bracco Diagnostics, Inc.] was injected into an antecubital vein catheter at 2.5 mL/s using a power injector [Medrad] to deliver a dose of 28 μmol/kg (typically ^˜5 mL), followed by a 15 mL saline flush at the same rate. […] Parametric R1 maps were calculated on a voxel basis by fitting the signal magnitude at each TI with a full Bloch simulation incorporating all RF pulses and delays. […]
Dynamic measurements were obtained using a single-slice inversion recovery (IR) turboflash technique that sampled magnetization at eight time points post inversion. […] Parametric R1 maps were calculated on a voxel basis by fitting the magnitude signal intensity at each inversion time to a full Bloch simulation that incorporated all RF pulses and delays and modeled the recovery from inversion as a two-parameter single exponential using a gradient expansion algorithm. […]

human prostate tumor = settings: cited from earlier work
Na+/K+-ATPase = settings: within 15 minutes of direct application to the striatum; cited from earlier work
[2] = human, in vivo, iv; cited from earlier work

Molecule: CC(O)CN1CCN(CC(=O)[O-])CCN(CC(=O)[O-])CCN(CC(=O)[O-])CC1.[Gd+3] (stereo not shown) [GdHPDO3A, gadoteridol]
- maximum K^trans in the lesion center [1]: above 2×10^−3 min^−1

Molecule: CC(=O)[13C](=O)O [[1-^13C]pyruvate]
- [1-13C]pyruvate to [1-13C]lactate conversion rate constant (human prostate tumor): 0.045 s⁻¹

Molecule: C[C@@H]1O[C@@H](O[C@H]2C[C@@H](O)[C@]3(CO)[C@H]4[C@H](O)C[C@]5(C)[C@@H](C6=CC(=O)OC6)CC[C@]5(O)[C@@H]4CC[C@]3(O)C2)[C@H](O)[C@H](O)[C@H]1O [ouabain]
- ADC drop (Na+/K+-ATPase): 40%

Molecule: ferumoxytol [Fe-tol]
- plasma t1/2 [2]: 14 h
